Measured values as given in publication PMC6365497, “2-aminoimidazoles collapse mycobacterial proton motive force and block the electron transport chain” (Scientific Reports, 2019).
≈ marks a conversion by molar mass, not a printed value. Where “and” joins values, the source holds several entries; their conditions need not be identical. Equal values may be shown once. Entries after “also recorded” stand apart in the source; their conditions may differ. Read-outs that look alike come from different tables or passages of the source.

Assays:
[1] = test system: M. smegmatis; assay: Kinetic measurement of alamarBlue reduction
[2] = test system: M. smegmatis IMVs; assay: Determination of ΔpH collapse with IMVs (ACMA); conditions: for ΔpH collapse: Acute (≤ 2 h)
[3] = test system: mycobacterial cell membrane; conditions: prolonged incubation (24 h); cited from earlier work
[4] = test system: M. tuberculosis; assay: Quantification of intracellular ATP
[5] = test system: M. smegmatis IMVs; assay: ETC activity assay with IMVs (INT reduction); assay type: biochemical
[6] = test system: M. tuberculosis; parameters: method as in PMID 28749949; conditions: cited from earlier work
[7] = test system: M. tuberculosis H37Rv mc^2 6206; assay type: cell-based, Mycobacterium tuberculosis; conditions: for NADH/NAD+ ratio: Low (≤ 62.5 µM) 2B8
[8] = test system: M. tuberculosis mc^2 6206; assay type: cell-based, Mycobacterium tuberculosis; conditions: for Concentration up to which OCR increased (levelling off): stepwise increments
[9] = test system: M. smegmatis IMVs; assay type: biochemical
[10] = test system: M. smegmatis IMVs; assay: NADH oxidation by IMVs; assay type: biochemical
[11] = test system: M. tuberculosis; assay: β-lactam potentiation assay; assay type: cell-based, Mycobacterium tuberculosis
[12] = test system: M. smegmatis; assay: MIC against M. smegmatis; assay type: cell-based
[13] = test system: M. tuberculosis; assay: microbe, parasite or virus in culture; assay type: cell-based, Mycobacterium tuberculosis
[14] = test system: M. smegmatis; assay: Determination of Δψ collapse by DisC3(5); assay type: cell-based; conditions: for Δψ collapse: Acute (≤ 2 h)
[15] = test system: M. tuberculosis; assay: Kinetic measurement of alamarBlue reduction; assay type: cell-based, Mycobacterium tuberculosis
[16] = High (> 62.5 µM) 2B8, Acute (≤ 2 h)
[17] = Low (≤ 62.5 µM) 2B8, Acute (≤ 2 h)
[18] = Low (≤ 62.5 µM) 2B8, Delayed (> 2 h)
[19] = M. tuberculosis, stepwise increasing concentration, media without BSA
[20] = M. tuberculosis, compound at 50% of its MIC, MIC of β-lactam / MIC of β-lactam plus drug

In the case of CCCCCCC(CCCCCC)NC(=O)CCCc1cnc(N)[nH]1 [2B8], the alamarBlue reduction [1] is reported as “inhibited”, the “Effect on ΔpH, ACMA fluorescence reversal” value [2] is reported as “collapsed the ΔpH” and the ΔpH collapse ([2]; High (> 62.5 µM) 2B8) is reported as “S t r o ng”. For the same compound, the ΔpH collapse ([2]; Low (≤ 62.5 µM) 2B8) was “Low- Strong”, the “ΔpH collapse (summary)” value ([2]; Table S2 summary) was “S t r o ng” and the “Concentration causing catastrophic cell membrane disruption” value [3] was at least 125 µM. The “[ATP]i” value [4, 16] was “N o effect”, the “[ATP]i” value [4, 17] was “N o effect” and the “[ATP]i” value [4, 18] was “N o effect- ↓”. For the same compound, the “[ATP]i (summary)” value ([4]; Table S2 summary) was “S t r o ng ↓”, the “ETC activity (INT reduction at 490 nm)” value [5] was “potently inhibited” and the ETC activity [5, 17] was “N o effect”. The “Concentration with inhibitory effect on the ETC” value ([5]; M. smegmatis IMVs) was at least 78 µM, the “ETC activity (summary)” value ([5]; Table S2 summary) was “S t r o ng ↓” and the “MIC (MIC95)” value [6] was 250 µM. The “NADH/NAD^+ ratio” value [7] was “significantly increased; also recorded: persisted”, the “NADH/NAD+ ratio” value ([7]; Acute (≤ 2 h)) was “N o effect- ↑” and the “NADH/NAD+ ratio” value ([7]; Delayed (> 2 h)) was “N o effect- ↑”. For the same compound, the “NADH/NAD+ ratio (summary)” value ([7]; Table S2 summary) was “S t r o ng ↑”, the O2 consumption rate [8, 16] was “↓ to basal” and the “Concentration required to decrease OCR” value ([8]; M. tuberculosis) was at least 93 µM. For the same compound, the “OCR versus basal OCR” value ([8]; M. tuberculosis, 250 µM 2B8 (highest tested concentration)) was “no statistical difference”, the “Effect on oxygen consumption rate (OCR)” value [8, 19] was “OCR increased” and the “Concentration up to which OCR increased (levelling off)” value ([8]; M. tuberculosis) was 62.5 µM. For the same compound, the “O2 consumption rate (summary)” value ([8]; Table S2 summary) was “↑ t he n ↓”, the “Restoration of inhibited NADH oxidation by CFZ” value ([9]; M. smegmatis IMVs treated with 5 mM KCN, 80 µM TRZ or 125 µM 2B8, 42 µM CFZ added) was “also restored by CFZ” and the “Rescue by CFZ (summary)” value ([9]; Table S2 summary) was “Partial”. For the same compound, the “Effect on NADH oxidation (fluorescence decay 340ex/460em)” value (shortened to “Effect on NADH oxidation”) [10] was “significantly inhibited”, the NADH oxidation [10, 17] was “N o effect” and the “Concentration at which NADH oxidation is significantly inhibited” value ([10]; M. smegmatis IMVs) was “greater than 62.5 µM”. The “NADH oxidation (summary)” value ([10]; Table S2 summary) was “S t r o ng ↓”, the “Fold potentiation of Carbenicillin” value [11, 20] was 64x and the “Fold potentiation of Meropenem” value [11, 20] was 64x. For the same compound, the “β-lactam potentiation (summary)” value ([11]; Table S2 summary) was “S t r o ng ↑”, the MIC ([12]; M. smegmatis, +0.5% BSA) was 125 to 250 µM and the MIC ([12]; M. smegmatis, No BSA) was 62.5 µM (≈ 21.9 µg/mL). For the same compound, the MIC [13] was 250 to 500 µM and 250 µM, the “Effect on Δψ (membrane potential), DiSC3(5) fluorescence reversal” value [14] was “rapidly depolarized the membrane potential” and the Δψ collapse ([14]; High (> 62.5 µM) 2B8) was “S t r o ng”. For the same compound, the Δψ collapse ([14]; Low (≤ 62.5 µM) 2B8) was “S t r o ng”, the “Δψ collapse (summary)” value ([14]; Table S2 summary) was “S t r o ng” and the alamarBlue reduction [15] was “inhibited”. For the same compound, the alamarBlue reduction [15, 18] was “N o effect”, the alamarBlue reduction ([15]; M. tuberculosis, 2B8 62.5 µM) was “not” and the “alamarBlue reduction (summary)” value ([15]; Table S2 summary, mycobacteria) was “S t r o ng ↓”.
In the case of COc1nc2ccc(Br)cc2cc1[C@@H](c1ccccc1)[C@@](O)(CCN(C)C)c1cccc2ccccc12 [BDQ, bedaquiline, reference compound], the “ΔpH collapse (summary)” value ([2]; Table S2 summary) is reported as “Intermediate”, the “[ATP]i (summary)” value ([4]; Table S2 summary) is reported as “S t r o ng ↓” and the “ETC activity (summary)” value ([5]; Table S2 summary) is reported as “N o effect”. For the same compound, the “NADH/NAD^+ ratio” value [7] was “increased”, the “NADH/NAD+ ratio (summary)” value ([7]; Table S2 summary) was “Intermediate ↑” and the “Effect on oxygen consumption rate (OCR)” value [8, 19] was “significantly increased M. tuberculosis OCR”. The “Concentration up to which OCR increased (levelling off)” value ([8]; M. tuberculosis) was 9 µM, the “Effect on NADH oxidation” value [10] was “inhibited” and the “NADH oxidation (summary)” value ([10]; Table S2 summary) was “Intermediate ↓”. For the same compound, the “Fold potentiation of Carbenicillin” value [11, 20] was 4x, the “Fold potentiation of Meropenem” value [11, 20] was 4x and the “β-lactam potentiation (summary)” value ([11]; Table S2 summary) was “Weak ↑”. The MIC ([13]; Mycobacterium tuberculosis, M. tuberculosis, read-out: MIC (MIC95)) was 0.125 µM (≈ 0.0694 µg/mL), the “Δψ collapse (summary)” value ([14]; Table S2 summary) was “N o effect” and the “alamarBlue reduction (summary)” value ([15]; Table S2 summary, mycobacteria) was “N o effect”.
For CC1(C)S[C@@H]2[C@H](NC(=O)C(C(=O)O)c3ccccc3)C(=O)N2[C@H]1C(=O)O (stereo partly shown) [Carbenicillin], the “MIC (MIC95)” value [6] is given as 1000 µg/mL.
For C[C@@H](O)[C@H]1C(=O)N2C(C(=O)O)=C(S[C@@H]3CN[C@H](C(=O)N(C)C)C3)[C@H](C)[C@H]12 [Meropenem], the “MIC (MIC95)” value [6] is listed as 8 µg/mL.
For CCCCCCCCCCCCCNC(=O)CCCc1cnc(N)[nH]1 [RA13], the alamarBlue reduction [1] was “did not have an effect”, the “ΔpH collapse (summary)” value [2] was “Weak” and the “[ATP]i (summary)” value [4] was “N o effect”. The “ETC activity (INT reduction at 490 nm)” value [5] was “only affected INT reduction in the presence of both substrates”, the “ETC activity (summary)” value [5] was “Weak ↓” and the “NADH/NAD+ ratio (summary)” value [7] was “N o effect”. The “NADH/NAD^+ ratio” value [7] was “inactive”, the “Effect on oxygen consumption rate (OCR)” value [8] was “minimal changes in OCR” and the “O2 consumption rate (summary)” value [8] was “Weak ↑”. For the same compound, the “Effect on NADH oxidation” value [10] was “did not have any effect”, the “NADH oxidation (summary)” value [10] was “N o effect” and the “Fold potentiation of Carbenicillin” value [11] was 1.5x. For the same compound, the “Fold potentiation of Meropenem” value [11] was 2x, the “β-lactam potentiation (summary)” value [11] was “M a r g in a l ↑” and the MIC [12] was over 1000 µM. For the same compound, the MIC [13] was over 1000 µM, the “Effect on Δψ (membrane potential), DiSC3(5) fluorescence reversal” value [14] was “no effect” and the “Δψ collapse (summary)” value [14] was “N o effect”. For the same compound, the alamarBlue reduction [15] was “did not have an effect” and the “alamarBlue reduction (summary)” value [15] was “N o effect”.
With CSc1ccc2c(c1)N(CCC1CCCCN1C)c1ccccc1S2 (stereo not shown) [TRZ, thioridazine, reference compound] the “ΔpH collapse (summary)” value ([2]; Table S2 summary) was “S t r o ng”, the “[ATP]i (summary)” value ([4]; Table S2 summary) was “S t r o ng ↓” and the “ETC activity (INT reduction at 490 nm)” value [5] was “none and potent and intermediate”. For the same compound, the “ETC activity (summary)” value ([5]; Table S2 summary) was “S t r o ng ↓”, the “NADH/NAD+ ratio (summary)” value [7] was “S t r o ng ↑” and the “NADH/NAD^+ ratio” value [7] was “increased”. For the same compound, the “Effect on oxygen consumption rate (OCR)” value [8] was “significantly increased M. tuberculosis OCR”, the “Restoration of inhibited NADH oxidation by CFZ” value [9] was “not altered by CFZ” and the “Rescue by CFZ (summary)” value ([9]; Table S2 summary) was “No”. The “Effect on NADH oxidation” value [10] was “significantly slowed down”, the “NADH oxidation (summary)” value ([10]; Table S2 summary) was “S t r o ng ↓” and the “Fold potentiation of Carbenicillin” value [11] was 16x. For the same compound, the “Fold potentiation of Meropenem” value [11] was 32x, the “β-lactam potentiation (summary)” value ([11]; Table S2 summary) was “Intermediate ↑” and the MIC ([13]; Mycobacterium tuberculosis, read-out: MIC (MIC95)) was 62.5 µM (≈ 23.2 µg/mL). For the same compound, the “Δψ collapse (summary)” value ([14]; Table S2 summary) was “Intermediate” and the “alamarBlue reduction (summary)” value ([15]; Table S2 summary, mycobacteria) was “S t r o ng ↓”.
In the case of “carbonyl cyanide m-chlorophenyl hydrazine [CCCP, reference compound]”, the alamarBlue reduction [1] is reported as “inhibited”, the “ΔpH collapse (summary)” value [2] is reported as “Intermediate” and the “[ATP]i (summary)” value [4] is reported as “Intermediate ↓”. For the same compound, the “ETC activity (INT reduction at 490 nm)” value [5] was “tendency to increase ETC activity”, the “ETC activity (summary)” value [5] was “Weak ↑” and the “NADH/NAD+ ratio (summary)” value [7] was “N o effect”. The “NADH/NAD^+ ratio” value [7] was “did not increase”, the “Effect on oxygen consumption rate (OCR)” value [8] was “bell-shaped, dose-response effect” and the “O2 consumption rate (summary)” value [8] was “↑ t he n ↓”. For the same compound, the “Rescue by CFZ (summary)” value [9] was “N o effect”, the “Effect on NADH oxidation” value [10] was “tendency to accelerate NADH oxidation” and the “NADH oxidation (summary)” value [10] was “Weak ↑”. The “Fold potentiation of Carbenicillin” value [11] was 9.6x, the “Fold potentiation of Meropenem” value [11] was 16x and the “β-lactam potentiation (summary)” value [11] was “Intermediate ↑”. For the same compound, the MIC ([13]; read-out: MIC (MIC95)) was 20 µM, the “Δψ collapse (summary)” value [14] was “S t r o ng” and the alamarBlue reduction [15] was “inhibited”. The “alamarBlue reduction (summary)” value [15] was “Weak ↓”.
